Source: patent publication EP1789452B1, “RELAXIN-CHIMERIC POLYPEPTIDES AND THEIR PREPARATION AND USE” (Janssen Pharmaceutica NV, priority 2004, dated 2006)

Tests used:
[1] = molecular target: T1, LGR7 (Homo sapiens, UniProt Q9HBX9); assay: Stimulation of β-galactosidase expression in SK-N-MC/β-gal cells; type: cell-based
T1 construct: Human LGR7 cDNA containing the complete coding region was PCR amplified from a human brain cDNA pool; expressed in transfected cells; host or cells: COS-7 (transient, live cells)
T1 sequence (Q9HBX9 1-757): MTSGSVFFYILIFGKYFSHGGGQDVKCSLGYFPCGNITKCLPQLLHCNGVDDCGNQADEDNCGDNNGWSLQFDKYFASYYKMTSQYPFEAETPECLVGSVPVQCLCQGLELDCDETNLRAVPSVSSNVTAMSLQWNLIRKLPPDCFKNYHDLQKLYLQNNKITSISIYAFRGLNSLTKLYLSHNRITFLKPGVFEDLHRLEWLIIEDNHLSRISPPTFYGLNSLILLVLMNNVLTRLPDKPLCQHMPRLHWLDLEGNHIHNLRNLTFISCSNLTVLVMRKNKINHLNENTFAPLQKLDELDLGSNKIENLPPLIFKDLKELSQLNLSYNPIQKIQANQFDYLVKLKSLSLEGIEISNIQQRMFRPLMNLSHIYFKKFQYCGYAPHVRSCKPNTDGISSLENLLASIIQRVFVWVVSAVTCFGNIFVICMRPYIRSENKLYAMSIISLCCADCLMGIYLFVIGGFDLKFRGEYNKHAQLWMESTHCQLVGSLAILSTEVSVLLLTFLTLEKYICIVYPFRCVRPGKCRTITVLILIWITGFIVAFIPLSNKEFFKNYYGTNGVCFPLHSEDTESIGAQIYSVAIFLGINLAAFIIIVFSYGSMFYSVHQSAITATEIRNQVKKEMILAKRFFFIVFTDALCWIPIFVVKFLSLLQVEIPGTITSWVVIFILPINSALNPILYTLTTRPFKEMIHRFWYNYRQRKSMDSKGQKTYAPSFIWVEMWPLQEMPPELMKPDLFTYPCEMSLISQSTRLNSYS

[2] = molecular target: T2, LGR8 (Homo sapiens, UniProt Q8WXD0); assay: as above; type: cell-based; conditions: highest concentration tested 1 µM
T2 construct: Human LGR8 cDNA containing the complete coding region was PCR amplified from a human testis cDNA pool; expressed in transfected cells
T2 sequence (Q8WXD0 whole entry): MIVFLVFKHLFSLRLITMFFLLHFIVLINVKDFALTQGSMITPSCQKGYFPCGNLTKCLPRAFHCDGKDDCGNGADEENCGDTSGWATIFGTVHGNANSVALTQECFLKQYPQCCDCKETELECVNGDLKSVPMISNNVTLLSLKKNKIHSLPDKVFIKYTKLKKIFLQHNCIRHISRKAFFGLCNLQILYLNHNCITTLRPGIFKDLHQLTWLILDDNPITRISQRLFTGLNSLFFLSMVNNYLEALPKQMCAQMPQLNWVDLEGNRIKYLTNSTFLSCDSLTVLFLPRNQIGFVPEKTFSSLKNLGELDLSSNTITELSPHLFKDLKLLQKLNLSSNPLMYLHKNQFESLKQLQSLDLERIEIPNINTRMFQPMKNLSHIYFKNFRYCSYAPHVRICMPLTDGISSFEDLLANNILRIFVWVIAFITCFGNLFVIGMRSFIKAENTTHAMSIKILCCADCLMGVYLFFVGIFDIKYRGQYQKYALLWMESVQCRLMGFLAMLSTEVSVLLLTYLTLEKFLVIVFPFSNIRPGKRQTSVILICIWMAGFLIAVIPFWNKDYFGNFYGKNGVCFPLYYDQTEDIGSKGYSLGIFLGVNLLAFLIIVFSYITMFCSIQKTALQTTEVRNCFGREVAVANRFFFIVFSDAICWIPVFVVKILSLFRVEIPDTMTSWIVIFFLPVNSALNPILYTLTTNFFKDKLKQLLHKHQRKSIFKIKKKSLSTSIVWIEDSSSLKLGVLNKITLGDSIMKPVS

activation of LGR7 expressing cells [1]: did not activate
activity towards LGR8 [2]: did not activate
SMILES: CC[C@H](C)[C@H](NC(=O)[C@H](Cc1ccccc1)NC(=O)[C@H](CCC(=O)O)NC(=O)[C@H](CCCNC(=N)N)NC(=O)CNC(=O)[C@H](CS)NC(=O)[C@H](CC(C)C)NC(=O)[C@H](CCCNC(=N)N)NC(=O)[C@@H](NC(=O)CNC(=O)[C@H](Cc1ccc(O)cc1)NC(=O)[C@@H]1CCCN1C(=O)[C@H](C)NC(=O)[C@H](C)NC(=O)[C@@H](N)CCCNC(=N)N)C(C)C)C(=O)N[C@@H](CCCNC(=N)N)C(=O)N[C@@H](C)C(=O)N[C@H](C(=O)N[C@H](C(=O)N[C@@H](Cc1ccccc1)C(=O)N[C@H](C(=O)N[C@@H](CS)C(=O)NCC(=O)NCC(=O)N[C@@H](CO)C(=O)N[C@@H](CCCNC(=N)N)C(=O)N[C@@H](Cc1c[nH]c2ccccc12)C(=O)O)[C@@H](C)O)[C@@H](C)CC)C(C)C [relaxin-3 B-chain]
